Reference: patent US8519096B2, “Citrullinated peptides for diagnosing and prognosing rheumatoid arthritis” (Nestec S.A., priority 2009, dated 2013)
Non-standard residues stand in square brackets, D forms with d. *: point of attachment. Biotin = O=C1N[C@H]2[C@H](CS[C@H]2CCCCC(=O)*)N1; Cit = NC(=O)NCCC[C@H](N)C(=O)O

System: IgG ACPAs
Test: ACPA ELISA with anti-human IgG secondary antibody
Type: binding
Conditions: Example 7, FIGS. 20-27
Method: The synthetic citrullnated peptides set forth in Example 6, which were designed from synovial proteins, were synthesized and evaluated for their ability to diagnose and/or prognose RA. […] The peptides were then tested for IgG ACPA dose-response in samples of synovial fluid taken from both healthy patients and patients with RA.

Question: Which “IgG ACPA positive response (strong/moderate)” value does the source give for “H3-2: synthetic citrullinated peptide derived from histone (H3), Table 8 (Biotin-DFKTDL[Cit]FQSSAVMARRIRGE[Cit]AG-NH2; SMILES CC[C@H](C)[C@H](NC(=O)[C@H](CCCNC(=N)N)NC(=O)[C@H](CCCNC(=N)N)NC(=O)[C@H](C)NC(=O)[C@H](CCSC)NC(=O)[C@@H](NC(=O)[C@H](C)NC(=O)[C@H](CO)NC(=O)[C@H](CO)NC(=O)[C@H](CCC(N)=O)NC(=O)[C@H](Cc1ccccc1)NC(=O)[C@H](CCCNC(N)=O)NC(=O)[C@H](CC(C)C)NC(=O)[C@H](CC(=O)O)NC(=O)[C@@H](NC(=O)[C@H](CCCCN)NC(=O)[C@H](Cc1ccccc1)NC(=O)[C@H](CC(=O)O)NC(=O)CCCC[C@@H]1SC[C@@H]2NC(=O)N[C@@H]21)[C@@H](C)O)C(C)C)C(=O)N[C@@H](CCCNC(=N)N)C(=O)NCC(=O)N[C@@H](CCC(=O)O)C(=O)N[C@@H](CCCNC(N)=O)C(=O)N[C@@H](C)C(=O)NCC(N)=O)” here?
Answer: moderate

Question: With “MLBS-1: synthetic citrullinated peptide derived from myeloblastin, Table 8 (Biotin-HS[Cit]PYMASLQM[Cit]GNPGSH-NH2; SMILES CSCC[C@H](NC(=O)[C@H](Cc1ccc(O)cc1)NC(=O)[C@@H]1CCCN1C(=O)[C@H](CCCNC(N)=O)NC(=O)[C@H](CO)NC(=O)[C@H](Cc1c[nH]cn1)NC(=O)CCCC[C@@H]1SC[C@@H]2NC(=O)N[C@@H]21)C(=O)N[C@@H](C)C(=O)N[C@@H](CO)C(=O)N[C@@H](CC(C)C)C(=O)N[C@@H](CCC(N)=O)C(=O)N[C@@H](CCSC)C(=O)N[C@@H](CCCNC(N)=O)C(=O)NCC(=O)N[C@@H](CC(N)=O)C(=O)N1CCC[C@H]1C(=O)NCC(=O)N[C@@H](CO)C(=O)N[C@@H](Cc1c[nH]cn1)C(N)=O)” as the substance, how does the “IgG ACPA positive response (strong/moderate)” value read?
Answer: moderate

Question: Which “IgG ACPA positive response (strong/moderate)” value does the source give for “PL-SCRB: synthetic citrullinated peptide derived from PL scramblase, Table 8 (Biotin-TL[Cit]IIDNMGQEVITLE[Cit]PLRSITLERPL[Cit]SS-NH2; SMILES CC[C@H](C)[C@H](NC(=O)[C@H](CO)NC(=O)[C@H](CCCNC(=N)N)NC(=O)[C@H](CC(C)C)NC(=O)[C@@H]1CCCN1C(=O)[C@H](CCCNC(N)=O)NC(=O)[C@H](CCC(=O)O)NC(=O)[C@H](CC(C)C)NC(=O)[C@@H](NC(=O)[C@@H](NC(=O)[C@@H](NC(=O)[C@H](CCC(=O)O)NC(=O)[C@H](CCC(N)=O)NC(=O)CNC(=O)[C@H](CCSC)NC(=O)[C@H](CC(N)=O)NC(=O)[C@H](CC(=O)O)NC(=O)[C@@H](NC(=O)[C@@H](NC(=O)[C@H](CCCNC(N)=O)NC(=O)[C@H](CC(C)C)NC(=O)[C@@H](NC(=O)CCCC[C@@H]1SC[C@@H]2NC(=O)N[C@@H]21)[C@@H](C)O)[C@@H](C)CC)[C@@H](C)CC)C(C)C)[C@@H](C)CC)[C@@H](C)O)C(=O)N[C@H](C(=O)N[C@@H](CC(C)C)C(=O)N[C@@H](CCC(=O)O)C(=O)N[C@@H](CCCNC(=N)N)C(=O)N1CCC[C@H]1C(=O)N[C@@H](CC(C)C)C(=O)N[C@@H](CCCNC(N)=O)C(=O)N[C@@H](CO)C(=O)N[C@@H](CO)C(N)=O)[C@@H](C)O)” here?
Answer: moderate

Question: “T2α1-3: synthetic citrullinated peptide derived from collagen (Coll.T2α1), Table 8 (Biotin-KWGKTVIEY[Cit]SQKTSRLYRSQKTS[Cit]LG-NH2; SMILES CC[C@H](C)[C@H](NC(=O)[C@@H](NC(=O)[C@@H](NC(=O)[C@H](CCCCN)NC(=O)CNC(=O)[C@H](Cc1c[nH]c2ccccc12)NC(=O)[C@H](CCCCN)NC(=O)CCCC[C@@H]1SC[C@@H]2NC(=O)N[C@@H]21)[C@@H](C)O)C(C)C)C(=O)N[C@@H](CCC(=O)O)C(=O)N[C@@H](Cc1ccc(O)cc1)C(=O)N[C@@H](CCCNC(N)=O)C(=O)N[C@@H](CO)C(=O)N[C@@H](CCC(N)=O)C(=O)N[C@@H](CCCCN)C(=O)N[C@H](C(=O)N[C@@H](CO)C(=O)N[C@@H](CCCNC(=N)N)C(=O)N[C@@H](CC(C)C)C(=O)N[C@@H](Cc1ccc(O)cc1)C(=O)N[C@@H](CCCNC(=N)N)C(=O)N[C@@H](CO)C(=O)N[C@@H](CCC(N)=O)C(=O)N[C@@H](CCCCN)C(=O)N[C@H](C(=O)N[C@@H](CO)C(=O)N[C@@H](CCCNC(N)=O)C(=O)N[C@@H](CC(C)C)C(=O)NCC(N)=O)[C@@H](C)O)[C@@H](C)O)” was tested. Which “IgG ACPA positive response (strong/moderate)” value did it give?
Answer: moderate

Question: With “T9α1-1: synthetic citrullinated peptide derived from collagen (Coll.T9α1), Table 8 (Biotin-KRRP[Cit]FPVNSFQVDKAAS[Cit]AIQRVVGSRAIQ[Cit]VVGSA-NH2; SMILES CC[C@H](C)[C@H](NC(=O)[C@H](C)NC(=O)[C@H](CCCNC(=N)N)NC(=O)[C@H](CO)NC(=O)CNC(=O)[C@@H](NC(=O)[C@@H](NC(=O)[C@H](CCCNC(=N)N)NC(=O)[C@H](CCC(N)=O)NC(=O)[C@@H](NC(=O)[C@H](C)NC(=O)[C@H](CCCNC(N)=O)NC(=O)[C@H](CO)NC(=O)[C@H](C)NC(=O)[C@H](C)NC(=O)[C@H](CCCCN)NC(=O)[C@H](CC(=O)O)NC(=O)[C@@H](NC(=O)[C@H](CCC(N)=O)NC(=O)[C@H](Cc1ccccc1)NC(=O)[C@H](CO)NC(=O)[C@H](CC(N)=O)NC(=O)[C@@H](NC(=O)[C@@H]1CCCN1C(=O)[C@H](Cc1ccccc1)NC(=O)[C@H](CCCNC(N)=O)NC(=O)[C@@H]1CCCN1C(=O)[C@H](CCCNC(=N)N)NC(=O)[C@H](CCCNC(=N)N)NC(=O)[C@H](CCCCN)NC(=O)CCCC[C@@H]1SC[C@@H]2NC(=O)N[C@@H]21)C(C)C)C(C)C)[C@@H](C)CC)C(C)C)C(C)C)C(=O)N[C@@H](CCC(N)=O)C(=O)N[C@@H](CCCNC(N)=O)C(=O)N[C@H](C(=O)N[C@H](C(=O)NCC(=O)N[C@@H](CO)C(=O)N[C@@H](C)C(N)=O)C(C)C)C(C)C)” as the substance, how does the “IgG ACPA positive response (strong/moderate)” value read?
Answer: moderate

Question: “T9α1-4: synthetic citrullinated peptide derived from collagen (Coll.T9α1), Table 8 (Biotin-QHIKQVSM[Cit]VIQEHFAEMAASLK[Cit]G-NH2; SMILES CC[C@H](C)[C@H](NC(=O)[C@H](Cc1c[nH]cn1)NC(=O)[C@H](CCC(N)=O)NC(=O)CCCC[C@@H]1SC[C@@H]2NC(=O)N[C@@H]21)C(=O)N[C@@H](CCCCN)C(=O)N[C@@H](CCC(N)=O)C(=O)N[C@H](C(=O)N[C@@H](CO)C(=O)N[C@@H](CCSC)C(=O)N[C@@H](CCCNC(N)=O)C(=O)N[C@H](C(=O)N[C@H](C(=O)N[C@@H](CCC(N)=O)C(=O)N[C@@H](CCC(=O)O)C(=O)N[C@@H](Cc1c[nH]cn1)C(=O)N[C@@H](Cc1ccccc1)C(=O)N[C@@H](C)C(=O)N[C@@H](CCC(=O)O)C(=O)N[C@@H](CCSC)C(=O)N[C@@H](C)C(=O)N[C@@H](C)C(=O)N[C@@H](CO)C(=O)N[C@@H](CC(C)C)C(=O)N[C@@H](CCCCN)C(=O)N[C@@H](CCCNC(N)=O)C(=O)NCC(N)=O)[C@@H](C)CC)C(C)C)C(C)C)” was tested. Which “IgG ACPA positive response (strong/moderate)” value did it give?
Answer: strong

Question: With “T10α1-1: synthetic citrullinated peptide derived from collagen (Coll.T10α1), Table 8 (Biotin-KAGQ[Cit]PSLSGDKILYN[Cit]QQ[Cit]TGIFTSQIR-NH2; SMILES CC[C@H](C)[C@H](NC(=O)CNC(=O)[C@@H](NC(=O)[C@H](CCCNC(N)=O)NC(=O)[C@H](CCC(N)=O)NC(=O)[C@H](CCC(N)=O)NC(=O)[C@H](CCCNC(N)=O)NC(=O)[C@H](CC(N)=O)NC(=O)[C@H](Cc1ccc(O)cc1)NC(=O)[C@H](CC(C)C)NC(=O)[C@@H](NC(=O)[C@H](CCCCN)NC(=O)[C@H](CC(=O)O)NC(=O)CNC(=O)[C@H](CO)NC(=O)[C@H](CC(C)C)NC(=O)[C@H](CO)NC(=O)[C@@H]1CCCN1C(=O)[C@H](CCCNC(N)=O)NC(=O)[C@H](CCC(N)=O)NC(=O)CNC(=O)[C@H](C)NC(=O)[C@H](CCCCN)NC(=O)CCCC[C@@H]1SC[C@@H]2NC(=O)N[C@@H]21)[C@@H](C)CC)[C@@H](C)O)C(=O)N[C@@H](Cc1ccccc1)C(=O)N[C@H](C(=O)N[C@@H](CO)C(=O)N[C@@H](CCC(N)=O)C(=O)N[C@H](C(=O)N[C@@H](CCCNC(=N)N)C(N)=O)[C@@H](C)CC)[C@@H](C)O)” as the substance, how does the “IgG ACPA positive response (strong/moderate)” value read?
Answer: moderate

Question: With “T11α2-1: synthetic citrullinated peptide derived from collagen (Coll.T11α2), Table 8 (Biotin-GISPADVAY[Cit]VARPAQLYRVA[Cit]PAQLSAPT[Cit]QR-NH2; SMILES CC[C@H](C)[C@H](NC(=O)CNC(=O)CCCC[C@@H]1SC[C@@H]2NC(=O)N[C@@H]21)C(=O)N[C@@H](CO)C(=O)N1CCC[C@H]1C(=O)N[C@@H](C)C(=O)N[C@@H](CC(=O)O)C(=O)N[C@H](C(=O)N[C@@H](C)C(=O)N[C@@H](Cc1ccc(O)cc1)C(=O)N[C@@H](CCCNC(N)=O)C(=O)N[C@H](C(=O)N[C@@H](C)C(=O)N[C@@H](CCCNC(=N)N)C(=O)N1CCC[C@H]1C(=O)N[C@@H](C)C(=O)N[C@@H](CCC(N)=O)C(=O)N[C@@H](CC(C)C)C(=O)N[C@@H](Cc1ccc(O)cc1)C(=O)N[C@@H](CCCNC(=N)N)C(=O)N[C@H](C(=O)N[C@@H](C)C(=O)N[C@@H](CCCNC(N)=O)C(=O)N1CCC[C@H]1C(=O)N[C@@H](C)C(=O)N[C@@H](CCC(N)=O)C(=O)N[C@@H](CC(C)C)C(=O)N[C@@H](CO)C(=O)N[C@@H](C)C(=O)N1CCC[C@H]1C(=O)N[C@H](C(=O)N[C@@H](CCCNC(N)=O)C(=O)N[C@@H](CCC(N)=O)C(=O)N[C@@H](CCCNC(=N)N)C(N)=O)[C@@H](C)O)C(C)C)C(C)C)C(C)C)” as the substance, how does the “IgG ACPA positive response (strong/moderate)” value read?
Answer: strong

Question: Which “IgG ACPA positive response (strong/moderate)” value does the source give for “T11α2-4: synthetic citrullinated peptide derived from collagen (Coll.T11α2), Table 8 (Biotin-GH[Cit]AQRSPQQQPS[Cit]LHRPQNQE-NH2; SMILES CC(C)C[C@H](NC(=O)[C@H](CCCNC(N)=O)NC(=O)[C@H](CO)NC(=O)[C@@H]1CCCN1C(=O)[C@H](CCC(N)=O)NC(=O)[C@H](CCC(N)=O)NC(=O)[C@H](CCC(N)=O)NC(=O)[C@@H]1CCCN1C(=O)[C@H](CO)NC(=O)[C@H](CCCNC(=N)N)NC(=O)[C@H](CCC(N)=O)NC(=O)[C@H](C)NC(=O)[C@H](CCCNC(N)=O)NC(=O)[C@H](Cc1c[nH]cn1)NC(=O)CNC(=O)CCCC[C@@H]1SC[C@@H]2NC(=O)N[C@@H]21)C(=O)N[C@@H](Cc1c[nH]cn1)C(=O)N[C@@H](CCCNC(=N)N)C(=O)N1CCC[C@H]1C(=O)N[C@@H](CCC(N)=O)C(=O)N[C@@H](CC(N)=O)C(=O)N[C@@H](CCC(N)=O)C(=O)N[C@@H](CCC(=O)O)C(N)=O)” here?
Answer: moderate
